Test results published in patent publication US11707444B2, “Antiviral composition for SARS-CoV-2 containing cannabinoids as active ingredient” (priority 2020, dated 2023).
Where two headings read alike, the source gives them in different places.

Tests used:
SARS-CoV-2 = assay: microbe, parasite or virus in culture; type: cell-based, SARS-CoV-2 (βCoV/KOR/KCDC03/2020)
CBR2 = CBR2 (Homo sapiens, UniProt P34972); details: reported (Pertwee 2008); cited from earlier work
[1] = 0.3 mg/kg/day, report; cited from earlier work
Vero cells = assay: Vero cell viability in the dose-response curve assay; type: cell-based
Procedure: Dose-response curve (DRC) analysis was performed according to a conventionally known method (Jeon, S., Ko, M., Lee, J., Choi, I., Byun, S Y, Park, S., Shum, D., and Kim, S. (2020). Identification of antiviral drug candidates against SARS-CoV-2 from FDA-approved drugs. Antimicrobial Agents and Chemotherapy). Briefly, the Vero cells were seeded at 1.2×10^4 cells per well in DMEM containing 1× Antibiotic-Antimycotic solution (Gibco) and 2% FBS in a 384-well, μClear plate (Greiner Bio-One) and maintained for 24 h. After that, the cells were treated twice with compounds in the concentration range of 0.05-100 μM. A 9-point dose-response curve (DRC) was generated. For viral infection, the plate was transferred to a BSL-3 isolation facility and SARS-CoV-2 was added to an MOI value of 0.0125. Next, the cells were fixed at 24 hpi with 4% PFA and measured using the immunofluorescence method Operetta (Perkin Elmer).
Images acquired using software within the Pasteur Institute in Korea were used to estimate the infection rate and cell number, and antiviral activity was normalized to negative (0.5% DMSO) and positive controls (mock). The dose-response curve (DRC) was measured using the sigmoidal dose-response model Y=Bottom+(Top−Bottom)/(1+(IC50/X)^Hillslope) using Prism or 7XLfit 4 software. Finally, IC50 values were measured for curves fitted to the normalized activity data set. […]

[2] = 100 mg of CBD, healthy volunteers, reported; cited from earlier work
[3] = cited from earlier work
[4] = Severe acute respiratory syndrome coronavirus 2, Vero; read-out: IC50, antiviral activity against SARS-CoV-2

Sequence of CBR2 (P34972 whole entry): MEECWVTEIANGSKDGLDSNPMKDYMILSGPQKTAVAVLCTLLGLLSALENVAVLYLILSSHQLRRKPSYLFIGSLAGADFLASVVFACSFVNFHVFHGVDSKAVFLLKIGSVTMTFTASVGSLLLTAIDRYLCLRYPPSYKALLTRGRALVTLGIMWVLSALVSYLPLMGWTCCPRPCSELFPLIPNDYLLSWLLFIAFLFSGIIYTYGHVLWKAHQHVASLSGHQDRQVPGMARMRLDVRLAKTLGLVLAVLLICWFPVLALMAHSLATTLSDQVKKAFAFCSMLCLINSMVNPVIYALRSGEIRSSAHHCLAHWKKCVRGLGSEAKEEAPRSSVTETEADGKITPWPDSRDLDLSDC

SMILES: CCCCCc1cc2c(c(O)c1C(=O)O)[C@@H]1C=C(C)CC[C@H]1C(C)(C)O2 [Compound T3, Δ9-Tetrahydrocannabinolic acid]
- IC50 (SARS-CoV-2; [4]): 13.2 µM

SMILES: CCCCCc1cc(O)c2c(c1)OC(C)(C)[C@@H]1CCC(C)=C[C@@H]21 [Compound T4, Δ^9-Tetrahydrocannabinol]
- IC50 (SARS-CoV-2; [4]): 10.2 µM
- action at CBR2 (CBR2): partial agonist

SMILES: CCCCCc1cc(O)c2c(c1)OC(C)(C)c1ccc(C)cc1-2 [Compound T7, Cannabinol]
- IC50 (SARS-CoV-2; [4]): 11.1 µM

SMILES: C=C(C)[C@@H]1CCC(C)=C[C@H]1c1c(O)cc(CCCCC)cc1O [Compound T22, Cannabidiol]
- effect in Crohn's disease [1]: effective
- IC50 (SARS-CoV-2; [4]): 7.91 µM
- inhibition at 12.5 µM (SARS-CoV-2; Severe acute respiratory syndrome coronavirus 2; at 12.50 μM, Vero cells): 99.2%
- Vero cell viability (Vero cells; at 12.50 μM): 97.46%
- host cell viability (Vero cells; at 50 μM): decreased sharply
- safety and tolerability [2]: safe and tolerable
- dose reported to be safe [3]: up to 60 mg per day

SMILES: C=C(C)[C@@H]1CCC(C)=C[C@H]1c1c(O)cc(CCCCC)c(C(=O)O)c1O [Compound T23, Cannabidiolic acid]
- IC50 (SARS-CoV-2; [4]): 37.6 µM

SMILES: CCN(CC)CCCC(C)Nc1ccnc2cc(Cl)ccc12 (stereo not drawn) [chloroquine, reference compound]
- IC50 (SARS-CoV-2; [4]): 8.17 µM

SMILES: Cc1cccc(C)c1OCC(=O)N[C@@H](Cc1ccccc1)[C@@H](O)C[C@H](Cc1ccccc1)NC(=O)[C@H](C(C)C)N1CCCNC1=O [lopinavir, reference compound]
- IC50 (SARS-CoV-2; [4]): 9.78 µM

SMILES: CCC(CC)COC(=O)[C@H](C)N[P@](=O)(OC[C@H]1O[C@@](C#N)(c2ccc3c(N)ncnn23)[C@H](O)[C@@H]1O)Oc1ccccc1 [remdesivir, reference compound]
- IC50 (SARS-CoV-2; Severe acute respiratory syndrome coronavirus 2, Vero, read-out: IC50, antiviral activity against SARS-CoV-2): 13.2 µM
